Reference: ChEMBL document CHEMBL3507680, “University of Dundee, Gates Library screen for HepG2 cell viability”

Assay: Human HepG2 cell viability assay in 384 well format
Assay type: toxicity, cell-based
Design: dose 125 nL, time 70.5 hour; cytotoxicity at 70.5 h: concentration not given beside the values
Details: HepG2 cells, read-out: Inhibition

Row | SMILES | cytotoxicity at 70.5 h [%]
1 | COCC1CC2(CCN(Cc3nccs3)CC2)CN1Cc1ccccn1 (stereo not drawn) | 9.76
2 | CC(=O)Nc1nc(C(=O)NCc2ccc(N3CCCCCC3)nc2)cs1 | 7.57
3 | Cc1cc(CN2CCN(C(=O)NCc3csc(C)n3)CC2)on1 | -13
4 | O=C(C1CCC1)N1CCO[C@@H]2CNC[C@@H]21 | 12.9
5 | Cc1cc(C[C@@H]2CCC[C@H]2NCc2ccccc2C)on1 | -1.32
6 | CC(C)n1nc2c(cc1=O)CN(Cc1nc(-c3ccoc3)no1)CC2 | 17
7 | Cc1cnn(C2CN(Cc3ccc4c(c3)OCCO4)C2)c1 | -10.6
8 | Cc1nc(CCNC(=O)NCc2cccc(N(C)C)n2)cs1 | -12.8
9 | COc1cc(C(=O)N2CCC3(CC2)Nc2ccccc2NC3=O)ccn1 | 19
10 | CCn1nc(C)c2ncnc(NCCCn3ccnc3)c21 | -9.37
11 | Cc1nonc1CN1CC[C@@](O)(C2CCC2)[C@H](C)C1 | -3.97
12 | COc1ccc(C(=O)N2CCOCC2c2ccc(C)o2)cc1 (stereo not drawn) | -9.97
13 | CC(NC(=O)NCC1(c2ccc(F)cc2)CC1)c1nncn1C (stereo not drawn) | -1.68
14 | Cc1ccc(CN2C[C@@H]3[C@@H](C(=O)N4CCCC4)CCS(=O)(=O)[C@@H]3C2)cc1 | -1.09
15 | Cc1cc(CN(C)C(=O)NC2CCN(C3CC3)CC2)no1 | -3
16 | CC(C)N1CCC(CN2CCn3nc(CNC(=O)N(C)C)cc3C2)CC1 | 4.16
17 | COc1ccc(NC(=O)N(C)Cc2ccsc2)cn1 | -3.11
18 | COCCC(=O)Nc1ccnn1-c1ccccc1 | 1.36
19 | Cn1nc(C(=O)N2CCCC2)c2c1CN(CC1CCOCC1)C2 | 4.3
20 | CO[C@@H]1CCN(Cc2nccs2)C[C@@H]1Cc1cccc(C)c1 | -3.84
21 | CCCC(C#N)NC(=O)CCCOc1cccc(C(C)=O)c1 (stereo not drawn) | 18
22 | OCCN1CCC(F)(F)C2(CCN(c3cccnc3)C2)C1 (stereo not drawn) | -6.87
23 | Cn1ncc2c(N3CC[C@H](O)C3)nc(-c3ccncc3)nc21 | -15.7

Row | SMILES | cytotoxicity at 70.5 h [%]
24 | Cc1sc(C(=O)O)cc1S(=O)(=O)Nc1c(F)cccc1-n1cccn1 | 18.5
25 | CC(O)c1cccc(Nc2nc(NCCO)c3ccccc3n2)c1 (stereo not drawn) | -5.65
26 | CC1=CCN(S(=O)(=O)c2cccc(C(=O)N3CCOCC3)c2)CC1 | -15.8
27 | CN(Cc1csc(-c2ccccc2)n1)Cc1ncccc1C(=O)O | 11.5
28 | O=C(c1ccc(Cn2cc(Br)cn2)cc1)N1CCOCC1 | -7.67
29 | O=C(C1CCC2(CCN(c3nncs3)CC2)CO1)N1CCCC1 (stereo not drawn) | -1.78
30 | COCCC(Cc1cccc(Br)c1)C(=O)NCC(N)=O (stereo not drawn) | -9.6
31 | c1cc(CN2Cc3nnn(CC4CC4)c3C(COCC3CC3)C2)co1 (stereo not drawn) | -8.27
32 | CN(C)c1cc(CNC(=O)c2ccc(=O)[nH]n2)ccn1 | 1.83
33 | Cn1nccc1C(=O)N1C[C@@H]2CN(S(C)(=O)=O)CCO[C@@H]2C1 | -3.72
34 | COc1cc(CNC(=O)NCc2c(C)cc(C)[nH]c2=O)ccc1C | -8.93
35 | O=C(Cc1c[nH]c2ncccc12)NCC(O)c1ccsc1 (stereo not drawn) | 0.0548
36 | CC(C)(C)c1coc([C@@H]2COCCN2Cc2c[nH]cn2)n1 | 2.66
37 | O=C(OCc1ccccc1)N1CC[C@H]2CC(CO)O[C@@H]2C1 (stereo partly drawn) | 4.61
38 | CCc1nsc(N2CCCN(C(=O)c3ccc(OC)cc3)CC2)n1 | -10.9
39 | O=C(O)C[C@@H]1CCN(C(=O)C2CCCC2)C[C@@H]1CCN1CCCCC1 | -1.16
40 | CN1CCN(C)C(c2nnc3ccc(C(=O)N4CCOCC4)cn23)C1 (stereo not drawn) | -21.5
41 | CC(C)c1nn2c(-c3cnn(C)c3)nnc2s1 | -9.47
42 | C[C@@H]1CN(C(=O)C2(Cn3cccn3)CC2)C[C@@]1(O)C1CCC1 | -0.77
43 | COc1ccc2cnn(CC(=O)NC3CCCC3)c(=O)c2c1OC | 2.71
44 | Cc1n[nH]c(C)c1CC(=O)N1CC[C@@](C)(O)[C@H](Oc2ccccc2)C1 | -6.16
45 | Cc1ccc(-n2nnc(C(=O)NC(C)C)c2C2CC2)cc1 | -4.09
46 | CSCCC(NC(=O)c1ccco1)C(=O)N(C)Cc1ccsc1 (stereo not drawn) | -4.71

Row | SMILES | cytotoxicity at 70.5 h [%]
47 | CN(CCN1CCCCC1)C(=O)c1cc(CN2CCOCC2)on1 | 2.75
48 | COc1c(C)cnc(CN2CCn3c(nnc3C(C)C)C2)c1C | -1.82
49 | O=C(CCNc1ncccn1)N1CCC(Nc2cccnn2)CC1 | -2.9
50 | CC(C)Nc1nc2c(c(NC3CC3)n1)CN(C(=O)c1ccnnc1)CC2 | 32.6
51 | CCc1ccc(-c2noc(Cn3nc(C(N)=O)ccc3=O)n2)cc1 | -6.4
52 | CCCC1CCCN(C(=O)CNC(=O)c2ccoc2C)CC1 (stereo not drawn) | -18.9
53 | CCc1cc(NC2CCS(=O)(=O)C2)nc(N2CCCCC2)n1 (stereo not drawn) | -3.25
54 | CC(C)C(NC(=O)Nc1cnn(CC(N)=O)c1)c1ccc(Cl)cc1 (stereo not drawn) | -1.5
55 | CNc1cc(C)nc(C2CN(Cc3ccc(Cl)cn3)CCO2)c1 (stereo not drawn) | -5.55
56 | N#Cc1cccc(OCCN2CCCC2C(=O)NC2CC2)c1 (stereo not drawn) | 4.05
57 | Cc1cnc(CCNC(=O)C2CN(C(=O)Cc3ccc(F)cc3)C2)s1 | 15.9
58 | COc1ccc(C)cc1S(=O)(=O)N[C@H]1CN(C(C)=O)C[C@@H]1C1CC1 | -7.75
59 | Cc1csc(N2CCN(C(=O)Cc3ccc(C)s3)CC2)n1 | 3.83
60 | CN1C(=O)C[C@@H]2[C@@H]1CCN2S(=O)(=O)Cc1ccccc1 | -3.44
61 | O=C(NCC(=O)N1CCCC1)c1nc(Cc2c(Cl)cccc2Cl)no1 | -16.3
62 | CCc1nnc2n1CCN(C(C(N)=O)c1ccc(F)cc1)C2 (stereo not drawn) | 26.6
63 | CN1CCCc2cc(CNC(=O)c3cccnc3O)ccc21 | -1.9
64 | O=C(c1coc2ccccc12)N1CCS(=O)(=O)CC1 | -5.47
65 | CN1CCN(c2nccc(-c3cncnc3C3CCCCC3)n2)CC1 | -5.17
66 | Cc1cnn(CC2CCCN2Cc2nc(C)c3ccccc3n2)c1 (stereo not drawn) | 1.46
67 | Cc1nn(C)c(Cl)c1CNCCOc1ccc2c(c1)OCO2 | 7.39
68 | COCCC(=O)N(C)Cc1nc(C(F)(F)F)cs1 | -1.8
69 | CC(C(=O)Nc1ccc(N2CCOCC2)nc1)n1cncn1 (stereo not drawn) | 23.7

Row | SMILES | cytotoxicity at 70.5 h [%]
70 | O=C(NCCn1ccnc1)c1csc(Br)c1 | 16.5
71 | O=C(C1CCCC1)N1CCC(C2CCN(Cc3ccc(Cl)cc3)C2)CC1 (stereo not drawn) | -2.34
72 | CC(C)(Oc1ccc2c(c1)CCCC2=O)C(=O)NCc1ccco1 | -2.8
73 | O=C(CCn1ccc(=O)[nH]c1=O)N1CCC(Oc2ncccc2Cl)CC1 | -6.14
74 | COc1cccc(C(C)N2CCN(S(C)(=O)=O)CC2)c1 (stereo not drawn) | 28.7
75 | CCOCC(=O)NCc1cc(C2CC2)n(C2CCCC2)n1 | 0.0223
76 | CN(C)CC1CN(Cc2csc(C3CCCC3)n2)CCO1 (stereo not drawn) | -12.3
77 | N#Cc1cccnc1NCCNC(=O)N1CCCC(C(F)(F)F)C1 (stereo not drawn) | -11.9
78 | O=C1CSC(c2ccc(Cl)cc2Cl)c2c(n(C3CCOCC3)[nH]c2=O)N1 (stereo not drawn) | -23.1
79 | CCC1=N[C@@]2(CC[C@@H]3CN(S(C)(=O)=O)C[C@@H]32)C(=O)N1CC(C)C | -1.52
80 | CC(=O)NCC(=O)N1Cc2nccn2CC(COc2cccnc2)C1 (stereo not drawn) | -10.5
81 | COc1ccc(OCC2CCCN(Cc3ccncc3)C2)cc1 (stereo not drawn) | -12.6
82 | O=C(CCc1ccsc1)N1CCCCC1Cn1cccn1 (stereo not drawn) | -9.96
83 | CCc1ccc(S(=O)(=O)N2CCN(CCn3ccnc3)CC2)cc1 | -0.658
84 | Cc1cc(C)n(C2CCCN(C(=O)CCNS(C)(=O)=O)C2)n1 (stereo not drawn) | 14.9
85 | CCCc1nc(C(=O)N2CCCn3nc(CCC(=O)O)cc3C2)cs1 | -9.99
86 | COc1cc(F)cc2sc(NC(=O)COCC3CCCO3)nc12 (stereo not drawn) | 13.2
87 | Cc1cc(Br)ccc1NCc1ccc(C(=O)N(C)C)[nH]1 | 18.2
88 | Cc1nn(C)c(C)c1NC(=O)Nc1cccnc1N1CCCC1 | -7.71
89 | CCc1nnc(C(C)N2CCCN(C(=O)Oc3ccccc3)CC2)o1 (stereo not drawn) | 2.06
90 | CN1CCN(c2ccc(NC(=O)c3ccoc3)c(C(F)(F)F)c2)CC1 | -7.05
91 | COC(=O)CCNC(=O)c1nnn(-c2ccc(C)cc2)c1C1CC1 | 16.4
92 | CCn1cnnc1CCNC(=O)c1ccc(Br)cc1F | -4.19

Row | SMILES | cytotoxicity at 70.5 h [%]
93 | O=C(CN1C(=O)CCC1=O)N1CCOC2(CCOCC2)C1 | 29.6
94 | CC(=O)Nc1c(C)noc1/C=C\c1ccc(S(=O)(=O)NC2CC2)cc1 | -1.71
95 | CC(NC(=O)CCCN(C)C)c1cn(-c2ccccc2)nn1 (stereo not drawn) | 20.9
96 | Cc1cnn(C2CN(Cc3nnc(Cc4ccccc4)o3)C2)c1 | -13.1
97 | O=c1c2cnc(N3CCCCC3)nc2ccn1-c1ccccc1F | 8.21
98 | CC(C)(C(=O)NCC1CC1)c1ccccc1F | -4.02
99 | CCn1cc2c(n1)CN(S(=O)(=O)c1cccnc1)CC2COC (stereo not drawn) | 1.06
100 | CC(C)NC(=O)NCCn1cnc(C2CCCC2)cc1=O | -6.52
101 | CCc1ccc(NC(=O)N2C[C@H]3C[C@H](C(=O)N4CCCC4)[C@@H](C2)O3)cc1 | 21
102 | CCc1nc(NC(=O)N(C)Cc2ccoc2)nn1C | -1.12
103 | COc1ccccc1C(=O)NCC(c1cccn1C)N1CCOCC1 (stereo not drawn) | -6.22
104 | COCc1cc(CNc2cnn(CC(F)F)c2)ccc1OC | 1.97
105 | CCc1c(C)nn2c(O)cc(C3CCN(C(=O)c4ccn(C)n4)C3)nc12 (stereo not drawn) | 16.4
106 | Cc1noc(C)c1-c1ccc(C2CCCN2C(=O)c2cnn(C)c2)nc1 (stereo not drawn) | -0.651
107 | Cc1nn(C)c(C)c1CN(Cc1cccn1-c1cccnc1)C(C)C | 11.8
108 | Cc1ccc(C(=O)N2CCCc3c(c(=O)n(C)n3C)C2)o1 | 11.7
109 | CC(O)c1cccc(-n2c(CCC(=O)O)nc3ccccc32)c1 (stereo not drawn) | -8.25
110 | C=C(Br)CN(C)C1CCN(CCc2ccccn2)CC1 | -6.85
111 | Cc1cc(C(=O)N2C[C@@H]3CCCO[C@@H]3[C@H](N3CCOCC3)C2)c(C)[nH]1 | -12.4
112 | Cc1ccccc1-c1cc(CC2(C(=O)O)CCOCC2)on1 | -6.86
113 | COC(=O)c1cnn(-c2cc(Oc3cccc(C)c3)ncn2)c1N | 4
